{"source": "ChEMBL document CHEMBL5608259", "about": "(J Med Chem, 2024)", "key": {"PRMT5/MEP50 complex": {"molecular_target": "PRMT5/MEP50 complex (Homo sapiens, UniProt O14744)", "sequence (O14744 whole entry)": "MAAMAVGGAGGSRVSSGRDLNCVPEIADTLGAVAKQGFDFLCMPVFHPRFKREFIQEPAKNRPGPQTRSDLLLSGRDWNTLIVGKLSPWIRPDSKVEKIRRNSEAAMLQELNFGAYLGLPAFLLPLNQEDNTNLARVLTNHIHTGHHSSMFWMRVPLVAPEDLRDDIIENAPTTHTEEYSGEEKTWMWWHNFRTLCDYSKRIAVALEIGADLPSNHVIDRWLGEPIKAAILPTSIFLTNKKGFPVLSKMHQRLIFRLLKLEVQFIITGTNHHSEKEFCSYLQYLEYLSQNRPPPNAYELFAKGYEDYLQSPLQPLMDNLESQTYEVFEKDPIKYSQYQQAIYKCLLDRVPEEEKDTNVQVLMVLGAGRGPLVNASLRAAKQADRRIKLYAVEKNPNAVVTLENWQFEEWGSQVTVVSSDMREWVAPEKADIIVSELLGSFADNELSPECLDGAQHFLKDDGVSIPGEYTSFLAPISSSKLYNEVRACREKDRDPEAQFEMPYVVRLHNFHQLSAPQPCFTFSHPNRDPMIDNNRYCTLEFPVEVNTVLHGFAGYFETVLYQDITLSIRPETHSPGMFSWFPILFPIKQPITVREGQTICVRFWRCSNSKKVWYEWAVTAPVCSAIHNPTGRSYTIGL", "sequence (Q9BQA1 whole entry, further chain)": "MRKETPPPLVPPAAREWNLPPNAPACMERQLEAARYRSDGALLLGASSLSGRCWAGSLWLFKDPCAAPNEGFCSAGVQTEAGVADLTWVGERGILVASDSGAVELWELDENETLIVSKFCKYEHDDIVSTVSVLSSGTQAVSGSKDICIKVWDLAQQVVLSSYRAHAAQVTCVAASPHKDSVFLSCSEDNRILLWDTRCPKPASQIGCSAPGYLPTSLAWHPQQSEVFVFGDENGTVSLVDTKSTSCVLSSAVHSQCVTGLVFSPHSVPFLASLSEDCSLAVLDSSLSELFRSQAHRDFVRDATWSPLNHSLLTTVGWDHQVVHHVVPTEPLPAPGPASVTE", "experiment": "Inhibition of PRMT5/MEP50 (unknown origin) incubated for 1 hr in presence of 3H-SAM by topcount plate reader analysis", "assay_type": "protein-complex assay"}, "[1]": {"molecular_target": "T1, Protein arginine N-methyltransferase 8 (Homo sapiens, UniProt Q9NR22)", "T1 sequence (Q9NR22 whole entry)": "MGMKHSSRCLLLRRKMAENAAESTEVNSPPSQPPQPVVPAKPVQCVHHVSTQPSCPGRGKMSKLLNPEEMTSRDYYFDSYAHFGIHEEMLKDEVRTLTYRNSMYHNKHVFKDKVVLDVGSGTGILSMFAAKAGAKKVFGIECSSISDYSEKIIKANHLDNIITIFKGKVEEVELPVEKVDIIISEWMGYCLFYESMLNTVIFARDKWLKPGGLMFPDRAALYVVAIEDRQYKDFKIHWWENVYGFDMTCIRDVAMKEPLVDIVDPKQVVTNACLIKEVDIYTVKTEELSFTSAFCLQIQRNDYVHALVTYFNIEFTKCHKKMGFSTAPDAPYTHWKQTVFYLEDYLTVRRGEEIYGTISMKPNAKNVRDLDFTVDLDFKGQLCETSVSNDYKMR", "experiment": "Inhibition of PRMT8 (unknown origin) incubated for 1 hr in presence of 3H-SAM by topcount plate reader analysis"}, "[2]": {"molecular_target": "T2, Protein arginine N-methyltransferase 7 (Homo sapiens, UniProt Q9NVM4)", "T2 sequence (Q9NVM4 whole entry)": "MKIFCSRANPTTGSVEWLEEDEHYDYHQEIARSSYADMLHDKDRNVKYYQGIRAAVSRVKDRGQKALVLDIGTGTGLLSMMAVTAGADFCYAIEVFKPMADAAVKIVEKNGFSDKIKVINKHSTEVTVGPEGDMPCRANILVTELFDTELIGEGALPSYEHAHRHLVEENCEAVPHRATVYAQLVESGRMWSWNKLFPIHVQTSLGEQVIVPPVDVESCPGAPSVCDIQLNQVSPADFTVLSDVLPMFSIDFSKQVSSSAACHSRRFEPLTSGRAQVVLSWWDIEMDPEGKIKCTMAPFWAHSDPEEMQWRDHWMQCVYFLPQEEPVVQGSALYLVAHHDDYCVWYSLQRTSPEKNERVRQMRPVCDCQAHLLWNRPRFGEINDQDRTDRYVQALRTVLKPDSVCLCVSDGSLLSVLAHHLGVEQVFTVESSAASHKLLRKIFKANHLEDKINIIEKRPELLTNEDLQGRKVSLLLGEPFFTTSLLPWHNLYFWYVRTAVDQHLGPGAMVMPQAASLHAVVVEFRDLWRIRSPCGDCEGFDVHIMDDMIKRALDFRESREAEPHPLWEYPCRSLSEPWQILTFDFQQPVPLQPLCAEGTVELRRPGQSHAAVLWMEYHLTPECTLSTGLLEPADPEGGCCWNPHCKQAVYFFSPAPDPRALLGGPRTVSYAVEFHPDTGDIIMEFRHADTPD", "experiment": "Inhibition of PRMT7 (unknown origin) incubated for 1 hr in presence of 3H-SAM by topcount plate reader analysis"}, "[3]": {"molecular_target": "T3, Protein arginine N-methyltransferase 3 (Homo sapiens, UniProt O60678)", "T3 sequence (O60678 whole entry)": "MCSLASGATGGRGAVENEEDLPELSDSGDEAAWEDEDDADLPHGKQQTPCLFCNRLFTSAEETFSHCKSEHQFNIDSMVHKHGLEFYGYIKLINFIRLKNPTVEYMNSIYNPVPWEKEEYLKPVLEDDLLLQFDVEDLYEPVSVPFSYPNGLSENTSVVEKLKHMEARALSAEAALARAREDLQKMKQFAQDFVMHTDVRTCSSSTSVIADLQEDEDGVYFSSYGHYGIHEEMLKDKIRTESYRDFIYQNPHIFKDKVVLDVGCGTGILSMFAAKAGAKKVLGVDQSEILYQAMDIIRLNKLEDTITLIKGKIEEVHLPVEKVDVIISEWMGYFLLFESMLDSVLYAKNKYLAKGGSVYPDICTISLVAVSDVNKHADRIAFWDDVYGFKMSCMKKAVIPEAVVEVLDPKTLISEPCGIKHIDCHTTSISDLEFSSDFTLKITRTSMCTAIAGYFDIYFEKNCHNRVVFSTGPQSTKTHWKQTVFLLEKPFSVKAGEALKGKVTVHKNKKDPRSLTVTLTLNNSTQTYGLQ", "experiment": "Inhibition of PRMT3 (unknown origin) incubated for 1 hr in presence of 3H-SAM by topcount plate reader analysis"}, "[4]": {"molecular_target": "T4, Histone-arginine methyltransferase CARM1 (Homo sapiens, UniProt Q86X55)", "T4 sequence (Q86X55 whole entry)": "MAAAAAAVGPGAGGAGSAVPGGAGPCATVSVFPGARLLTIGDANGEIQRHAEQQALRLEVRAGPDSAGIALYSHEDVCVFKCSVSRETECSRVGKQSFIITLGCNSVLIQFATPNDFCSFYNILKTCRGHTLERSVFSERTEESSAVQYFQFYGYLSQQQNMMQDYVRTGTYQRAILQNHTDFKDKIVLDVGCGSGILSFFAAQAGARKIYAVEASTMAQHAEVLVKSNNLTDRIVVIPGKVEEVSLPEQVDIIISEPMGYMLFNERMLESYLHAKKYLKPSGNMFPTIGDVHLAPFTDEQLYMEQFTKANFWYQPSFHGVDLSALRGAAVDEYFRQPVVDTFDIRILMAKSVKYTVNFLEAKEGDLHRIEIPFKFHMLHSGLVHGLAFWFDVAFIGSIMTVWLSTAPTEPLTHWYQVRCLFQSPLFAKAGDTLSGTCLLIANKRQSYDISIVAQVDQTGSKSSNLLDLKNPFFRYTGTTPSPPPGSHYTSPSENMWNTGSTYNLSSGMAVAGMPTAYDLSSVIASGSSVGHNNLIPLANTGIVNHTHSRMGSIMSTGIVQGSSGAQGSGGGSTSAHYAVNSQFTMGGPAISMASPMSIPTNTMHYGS", "experiment": "Inhibition of PRMT4 (unknown origin) incubated for 1 hr in presence of 3H-SAM by topcount plate reader analysis"}, "[5]": {"molecular_target": "T5, Protein arginine N-methyltransferase 6 (Homo sapiens, UniProt Q96LA8)", "T5 sequence (Q96LA8 whole entry)": "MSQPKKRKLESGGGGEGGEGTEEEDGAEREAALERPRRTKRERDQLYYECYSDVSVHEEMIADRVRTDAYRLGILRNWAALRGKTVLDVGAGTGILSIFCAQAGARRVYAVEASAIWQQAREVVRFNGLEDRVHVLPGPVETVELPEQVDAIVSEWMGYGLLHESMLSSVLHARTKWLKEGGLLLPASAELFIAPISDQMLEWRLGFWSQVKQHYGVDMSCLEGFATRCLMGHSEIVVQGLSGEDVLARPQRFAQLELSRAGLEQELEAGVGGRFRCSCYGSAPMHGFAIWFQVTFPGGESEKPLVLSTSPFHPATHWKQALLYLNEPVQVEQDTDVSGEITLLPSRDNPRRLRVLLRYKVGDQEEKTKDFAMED", "experiment": "Inhibition of PRMT6 (unknown origin) incubated for 1 hr in presence of 3H-SAM by topcount plate reader analysis"}, "[6]": {"molecular_target": "Protein arginine N-methyltransferase 1 (Homo sapiens, UniProt Q99873)", "sequence (Q99873 whole entry)": "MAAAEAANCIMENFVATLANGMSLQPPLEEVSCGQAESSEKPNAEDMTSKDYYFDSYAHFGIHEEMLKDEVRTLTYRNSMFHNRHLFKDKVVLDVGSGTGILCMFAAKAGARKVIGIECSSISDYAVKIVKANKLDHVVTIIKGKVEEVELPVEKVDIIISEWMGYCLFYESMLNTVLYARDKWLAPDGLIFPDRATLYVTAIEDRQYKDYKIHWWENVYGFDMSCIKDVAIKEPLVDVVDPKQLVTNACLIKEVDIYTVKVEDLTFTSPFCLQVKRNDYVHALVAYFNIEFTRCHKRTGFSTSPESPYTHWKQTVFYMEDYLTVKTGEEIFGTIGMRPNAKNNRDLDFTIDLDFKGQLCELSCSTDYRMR", "experiment": "Inhibition of PRMT1 (unknown origin) incubated for 1 hr in presence of 3H-SAM by topcount plate reader analysis"}, "[7]": {"molecular_target": "T1, Protein arginine N-methyltransferase 8", "experiment": "Inhibition of PRMT8 (unknown origin)"}, "[8]": {"molecular_target": "T4, Histone-arginine methyltransferase CARM1", "experiment": "Inhibition of PRMT4 (unknown origin)"}, "[9]": {"molecular_target": "T5, Protein arginine N-methyltransferase 6", "experiment": "Inhibition of PRMT6 (unknown origin)"}, "[10]": {"molecular_target": "Protein arginine N-methyltransferase 5 (Homo sapiens, UniProt O14744)", "sequence (O14744 whole entry)": "as the sequence (O14744 whole entry) above", "experiment": "Inhibition of PRMT5 (unknown origin)"}, "[11]": {"molecular_target": "T3, Protein arginine N-methyltransferase 3", "experiment": "Inhibition of PRMT3 (unknown origin)"}, "[12]": {"molecular_target": "T2, Protein arginine N-methyltransferase 7", "experiment": "Inhibition of PRMT7 (unknown origin)"}, "[13]": {"molecular_target": "T4, Histone-arginine methyltransferase CARM1", "experiment": "Inhibition of PRMT4 in human MDA-MB-231 cells assessed as decrease in BAF155 methylation level incubated for 48 hrs by Western blot analysis", "assay_type": "cell-based"}, "[14]": {"molecular_target": "T6, Histone-arginine methyltransferase CARM1 (Homo sapiens) (UniProt Q86X55)", "T6 sequence (whole entry)": "T4 sequence (Q86X55 whole entry)", "experiment": "Inhibition of PRMT4 in human MDA-MB-231 cells assessed as decrease in BAF155 methylation level incubated for 24 to 48 hrs by Western blot analysis", "assay_type": "cell-based", "details": "dose 0.01-20 µM, time 24-48 hrs"}, "4T1.2 [15]": {"tested_on": "4T1.2", "experiment": "In vivo inhibition of PRMT4 in mouse 4T1.2 cells xenografted in Balb/c mouse assessed as decrease in BAF155 methylation level at 50 mg/kg, ip by immunoblot analysis", "assay_type": "functional, organism-based"}, "[16]": {"experiment": "Drug recovery in mouse plasma at 5 uM measured after 5 hrs by LC-MS/MS analysis", "assay_type": "ADME, cell-free", "details": "read-out: Drug recovery"}, "[17]": {"experiment": "Plasma protein binding in mouse at 5 uM measured after 5 hrs by LC-MS/MS analysis", "assay_type": "ADME, cell-free", "details": "read-out: PPB (converted)"}, "[18]": {"experiment": "Prodrug release in human MDA-MB-231 cells assessed as (2R,3R,4S,5S)-2-(6-amino-9H-purin-9-yl)-5-(((2-((3-bromobenzyl)amino)ethyl)thio)methyl)tetrahydrofuran-3,4-diol formation at 4.5 uM measured after 30 mins by LC-MS analysis", "assay_type": "ADME, cell-based", "details": "mda-mb-231, 0.5 h"}, "MDA-MB-231": {"tested_on": "MDA-MB-231", "experiment": "Inhibition of colony formation in human MDA-MB-231 cells at 10 uM incubated for 2 weeks by crystal violet staining based analysis relative to control", "assay_type": "functional", "details": "MDA-MB-231, 336 h"}, "4T1.2 [19]": {"tested_on": "4T1.2", "experiment": "Antitumor activity against mouse 4T1.2 cells xenografted in Balb/c mouse assessed as inhibition of tumor growth at 50 mg/kg, ip measured after 4 weeks by caliper method", "assay_type": "functional, organism-based"}, "[20]": {"molecular_target": "T4, Histone-arginine methyltransferase CARM1", "experiment": "Inhibition of PRMT4 in human MDA-MB-231 cells assessed as decrease in PABP1 methylation level incubated for 48 hrs by Western blot analysis", "assay_type": "cell-based"}, "[21]": {"molecular_target": "T4, Histone-arginine methyltransferase CARM1", "experiment": "Inhibition of PRMT4 in human MDA-MB-231 cells assessed as decrease in PABP1 methylation level incubated for 24 hrs by Western blot analysis", "assay_type": "cell-based"}, "[22]": {"molecular_target": "T6, Histone-arginine methyltransferase CARM1 (Homo sapiens)", "experiment": "Inhibition of PRMT4 in human MDA-MB-231 cells assessed as inhibition of BAF155 methylation at 10 uM by Western blot analysis", "assay_type": "cell-based", "details": "time 1-48 hrs"}, "[23]": {"molecular_target": "T6, Histone-arginine methyltransferase CARM1 (Homo sapiens)", "experiment": "Potency index, ratio of IC50 for TP-064 to test compound IC50 for inhibition of PRMT4 in human MDA-MB-231 cells assessed as decrease in BAF155 methylation level incubated for 48 hrs by Western blot analysis", "assay_type": "cell-based"}, "[24]": {"molecular_target": "T6, Histone-arginine methyltransferase CARM1 (Homo sapiens)", "experiment": "Inhibition of PRMT4 in human MDA-MB-231 cells assessed as inhibition of PABP1 methylation at 10 uM by Western blot analysis", "assay_type": "cell-based"}, "[25]": {"molecular_target": "T6, Histone-arginine methyltransferase CARM1 (Homo sapiens)", "experiment": "Potency index, ratio of IC50 for EZM2302 to test compound IC50 for inhibition of PRMT4 in human MDA-MB-231 cells assessed as decrease in BAF155 methylation level incubated for 48 hrs by Western blot analysis", "assay_type": "cell-based"}, "[26]": {"molecular_target": "T6, Histone-arginine methyltransferase CARM1 (Homo sapiens)", "experiment": "Inhibition of PRMT4 in human MDA-MB-231 cells assessed as decrease in PABP1 methylation level incubated for 24 to 48 hrs by Western blot analysis", "assay_type": "cell-based", "details": "dose 0.01-20 µM, time 24-48 hrs"}, "[27]": {"experiment": "Toxicity in Balb/c mouse assessed as effect on body weight at 50 mg/kg, ip measured after 4 weeks", "assay_type": "organism-based", "details": "in vivo, 672 h"}, "[28]": {"molecular_target": "T4, Histone-arginine methyltransferase CARM1", "experiment": "Inhibition of PRMT4 in human MDA-MB-231 cells assessed as decrease in BAF155 methylation level incubated for 24 hrs by Western blot analysis", "assay_type": "cell-based"}}, "note": "pIC50: −log10 of the molar value. Active and inactive are the calls of the source. The calls are words filed in the database; no cut-off is given here."}
{"smiles": "Nc1ncnc2c1ncn2[C@@H]1O[C@H](CSCCCCNCc2cccc(-c3ccc(Cl)cc3)c2)[C@@H](O)[C@H]1O", "values": [{"measurement": "pIC50", "setting": "PRMT5/MEP50 complex", "value": 6.82}, {"measurement": "pIC50", "setting": "[1]", "value": 5.15}, {"measurement": "pIC50", "setting": "[2]", "value": "> 8.60"}, {"measurement": "pIC50", "setting": "[3]", "value": 5.80}, {"measurement": "pIC50", "setting": "[4]", "value": 6.85}, {"measurement": "pIC50", "setting": "[5]", "value": 5.82}, {"measurement": "pIC50", "setting": "[6]", "value": 5.92}]}
{"smiles": "N=C(NCCSC[C@H]1O[C@@H](n2cnc3c(N)ncnc32)[C@H](O)[C@@H]1O)Nc1ccccc1Br", "values": [{"measurement": "pIC50", "setting": "[7]", "value": 7.49}, {"measurement": "pIC50", "setting": "[8]", "value": 8.30}, {"measurement": "pIC50", "setting": "[9]", "value": 7.52}, {"measurement": "pIC50", "setting": "[10]", "value": 7.74}, {"measurement": "pIC50", "setting": "[11]", "value": 6.49}, {"measurement": "pIC50", "setting": "[12]", "value": 6.26}]}
{"smiles": "CC1=C(C)C(=O)C(C(C)(C)CC(=O)N(CCSC[C@H]2O[C@@H](n3cnc4c(N)ncnc43)[C@H](O)[C@@H]2O)Cc2cccc(Br)c2)=C(C)C1=O", "values": [{"measurement": "pIC50", "setting": "[13]", "value": 7.37}, {"measurement": "inhibition", "setting": "[14]", "value": "Dose-Dependent Effect"}, {"measurement": "inhibition", "setting": "4T1.2 [15]", "value": "Active"}, {"measurement": "remaining at 5 h, 5 µM", "setting": "[16]", "value": 90.8, "unit": "%"}, {"measurement": "fraction unbound at 5 h, 5 µM", "setting": "[17]", "value": 0.004}, {"measurement": "Drug metabolism", "setting": "[18]", "value": "Metabolite_Detected"}, {"measurement": "inhibition at 10 µM", "setting": "MDA-MB-231", "value": 100, "unit": "%"}, {"measurement": "inhibition", "setting": "4T1.2 [19]", "value": "Active"}, {"measurement": "pIC50", "setting": "[20]", "value": 7.64}, {"measurement": "pIC50", "setting": "[21]", "value": 7.51}, {"measurement": "inhibition", "setting": "[22]", "value": "Dose-Dependent Effect"}, {"measurement": "Ratio IC50", "setting": "[23]", "value": 2}, {"measurement": "inhibition", "setting": "[24]", "value": "Dose-Dependent Effect"}, {"measurement": "Ratio IC50", "setting": "[25]", "value": 2}, {"measurement": "inhibition", "setting": "[26]", "value": "Dose-Dependent Effect"}, {"measurement": "Activity", "setting": "[27]", "value": "Non-Toxic"}, {"measurement": "pIC50", "setting": "[28]", "value": 6.46}]}
